Experimental data reported in patent US5925667A, “Pyrrolidine derivative, anti-ulcer drug, and antibacterial drug” (Shiseido Co., Ltd., priority 1997, dated 1999).

test system: isolated gastric fundic gland; assay: CAP: Acid Secretion Inhibition Test In Vitro ([14C]-aminopyrine uptake test); format: cell-based, male Japanese White rabbit; settings: Oryctolagus cuniculus; final concentration 10^-5 M, histamine 10^-5 M; read-out: acid secretion inhibitory rate (CAP)
Experimental: CAP: Acid Secretion Inhibition Test In Vitro
The acid secretion inhibitory activity in a cell level is studied. It can also be used for studying the mechanism of the effect.
ii-a) Preparation of isolated gastric fundus gland suspension
First, an isolated gastric fundic gland sample was prepared. Namely, a male Japanese White rabbit (2.5 to 3 kg) was anesthetized to death with Nembutal™ and then the abdomen was incised. Immediately thereafter, the stomach was removed and, after its pyloric and cardiac antrum were severed, incised along its greater curvature into two sheets. The gastric contents adhering to the mucosal surface was washed out with ice-cooled PBS (-) and then carefully washed therein. The gastric wall was spread on a cork board with its mucosal surface facing up and the feed and mucus thereon were completely removed with sterile gauze. The mucosa was separated therefrom by a spatula and then collected in ice-cooled PBS (-). After being washed twice with PBS (-), the mucosa was minced into 2-3 mm^3 pieces by scissors. These pieces were further washed twice with a nutrient solution. The nutrient solution comprises 132.4 mM of NaCl, 5.4 mM of KCl, 5 mM of Na2 HPO4.12H2 O, 1 mM of NaH2 PO4.2H2,
1.2 mM of MgSO4, 1 mM of CaCl2, 25 mM of HEPES, 2 mg/ml of glucose, and 1 mg/ml of BSA.
Into 70 ml of the nutrient solution containing 1 mg/ml of collagenase, minced mucosal pieces were dispersed and intensely stirred in a conical flask with a stirrer at 37° C. for 40 to 60 minutes. During this period, 100% O2 was sprayed on the nutrient solution surface and the pH was appropriately measured such that it was immediately adjusted to pH 7.4, when the value was therebelow, with a base. The nutrient solution was added to the reaction solution so as to attain the total amount of about 200 ml. After being filtered through a mesh, the suspension was divisionally introduced into 50 ml centrifuge tubes and left for 15 minutes such that gastric fundic gland was deposited. The supernatant was repeatedly removed by an aspirator, dispersed in the nutrient solution, and then left such that the gastric fundic gland was washed three times. At this time, without using a pipette, the suspension was alternately introduced into two centrifuge tubes so as to effect dispersion. The number of cells was counted under microscope and adjusted to 1.6×10^6 cells/ml.
ii-b) [^14 C]-aminopyrine uptake test.
Then, [^14 C]-aminopyrine uptake test was performed. After an Eppendorf tube was weighed, 10 μl (final concentration: 10^-5 M) of histamine dissolved in the above-mentioned nutrient solution, 10 μl (final concentration: 10^-5 M) of the test compound dissolved in DMSO, and 10 μl (final concentration: 0.05 μCi/ml) of [^14 C]-aminopyrine diluted with the nutrient solution were introduced therein and then 970 μl of the isolated gastric fundic gland suspension prepared above was added thereto. Subsequently, this mixture was shaken at 37° C. for 40 minutes at 125 cycles/minute. After being centrifuged for 30 seconds, 200 μl of its supernatant was collected into a mini-vial, while the rest was removed by an aspirator. The gland pellet was completely dried as the tube with its lid being opened was kept for one night in a drying oven at 80° C. and then the lid was closed and the weight was determined at room temperature. Then 100 μl of 1N KOH was added thereto and the tube with its lid being closed was treated at 60° C. for 1 to 2 hours so as to dissolve the pellet. Then, the contents thereof were transferred to a mini-vial. Into the mini-vial containing the supernatant or gland pellet, 4 ml of Atomlite™ was added and then the radioactivity was measured by a liquid scintillation counter. Here, after the radioactivity of the gland pellet was corrected by using a sample in which 20 mM of NaSCN was added so as to cancel the hydrogen ion concentration gradient, the integration ratio of aminopyrine specifically trapped by the gland pellet was calculated. […]

Point of comparison: `CCN1CCCC1CNC(=O)c1cc(OCC=C(C)C)cc(OCC=C(C)C)c1` (stereo not drawn) [Example 8, 1-ethyl-2-(3,5-diprenyloxybenzoylaminomethyl)pyrrolidine], inhibition at 10 µM 100%. Against it:
- CCN1CCCC1CNC(=O)c1ccccc1OC/C=C(\C)CCC=C(C)C (stereo not drawn) [Example 2, 1-ethyl-2-(2-geranyloxybenzoylaminomethyl)pyrrolidine] — lower, 99.7%
- CCN1CCCC1CNC(=O)c1ccc(OCC=C(C)C)cc1 (stereo not drawn) [Example 3, 1-ethyl-2-(4-prenyloxybenzoylaminomethyl)pyrrolidine] — lower, 61%
- CCN1CCCC1CNC(=O)c1ccc(OC/C=C(/C)CCC=C(C)C)cc1 (stereo not drawn) [Example 4, 1-ethyl-2-(4-neryloxybenzoylaminomethyl)pyrrolidine] — the same, 100%
- CCN1CCCC1CNC(=O)c1ccc(OCC=C(C)C)cc1OCC=C(C)C (stereo not drawn) [Example 5, 1-ethyl-2-(2,4-diprenyloxybenzoylaminomethyl)pyrrolidine] — the same, 100%

test system: stress ulcer; assay: WIS: Restraint and Water Immersion Stress-Induced Ulcer Inhibition Test; format: in vivo, male Crj:SD or Slc:SD rats; settings: rat, 100 mg/kg oral, 7 h water immersion stress; read-out: ulcer formation inhibitory rate (WIS)
Experimental: WIS: Restraint and Water Immersion Stress-Induced Ulcer Inhibition Test
The degree of inhibition of the stress ulcer formation is tested.
Male Crj:SD or Slc:SD rats (6 to 7-week-old) were fasted overnight, but allowed free access to water. Each group has 5 to 8 of these rats. The sample compound was dissolved or suspended in an aqueous solution of 0.3% sodium carboxymethylcellulose or 0.05% Tween 80 and then was orally administered (100 mg/10 ml/kg. To a control group, the vehicle was administered. 10 minutes later, the rats were placed in a stress cage and immersed to the level of xipfoid process in a water bath (21° C.) for 7 hours. At the end of the stress, the rats were sacrificed by inhalation of ether or carbon dioxide. Then, the stomach of each was removed, inflated by injecting 10 ml of 5% formalin neutral buffer solution, and immersed in 1% formalin neutral buffer solution for 30 minutes or more to be fixed. The stomach was incised along the greater curvature and then the length of each erosion in the glandular portion was determined under dissecting microscope. The sum of the length of erosions per stomach was defined as ulcer index (UI).
The effect obtained when 100 mg/kg of the sample compound had been administered was expressed as ulcer formation inhibitory rate (%) as follows:
ulcer formation inhibitory rate (%)=(1-(UI in sample group/UI in control group))×100

Point of comparison: `CCN1CCCC1CNC(=O)c1ccccc1OC/C=C(\C)CCC=C(C)C` (stereo not drawn) [Example 2, 1-ethyl-2-(2-geranyloxybenzoylaminomethyl)pyrrolidine], inhibition in vivo at 100 mg/kg 85%. Against it:
- CCN1CCCC1CNC(=O)c1ccc(OCC=C(C)C)cc1 (stereo not drawn) [Example 3, 1-ethyl-2-(4-prenyloxybenzoylaminomethyl)pyrrolidine] — higher, 86%
- CCN1CCCC1CNC(=O)c1ccc(OC/C=C(/C)CCC=C(C)C)cc1 (stereo not drawn) [Example 4, 1-ethyl-2-(4-neryloxybenzoylaminomethyl)pyrrolidine] — lower, 68%
- CCN1CCCC1CNC(=O)c1ccc(OCC=C(C)C)cc1OCC=C(C)C (stereo not drawn) [Example 5, 1-ethyl-2-(2,4-diprenyloxybenzoylaminomethyl)pyrrolidine] — lower, 70%
- CCN1CCCC1CNC(=O)c1cc(OCC=C(C)C)cc(OCC=C(C)C)c1 (stereo not drawn) [Example 8, 1-ethyl-2-(3,5-diprenyloxybenzoylaminomethyl)pyrrolidine] — lower, 81%

test system: not listed separately; assay: MTT: Cell Damaging and Protecting Effect Test; format: cell-based, male Japanese White rabbit; settings: rabbit, gastric mucosa cells, final concentration 10^-4 M, smaller value is better, read-out: cell damaging rate (MTT)
Source text: MTT: Cell Damaging and Protecting Effect Test
It is confirmed that there is no toxicity in cell level. Those having a toxicity in cell level are inappropriate as an anti-ulcer drug.
A male Japanese White rabbit (2.5 to 3 kg) was anesthetized to death by Nembutal™ and, immediately thereafter, its stomach was removed. The greater curvature of the stomach was incised so as to remove the stomach contents therefrom. After the mucosal surface was washed with HBSS (Hanks' Balanced Salt Solution), the stomach in ice-cooled HBSS was transferred to a laboratory. Then, after the pyloric antrum was removed, the gastric corpus mucosa was separated by a spatula and then minced into 2 to 3 mm^3 pieces in BME (Basal Medium Eagle). Thereafer, these pieces were shaken at 120 to 130 cycles/minute for 15 minutes at 37° C. in BME 60 ml containing 280 U/ml of dispase and 30 to 50 U/ml of collagenase. Here, the concentration of collagenase was appropriately changed for each lot in view of the state of cells. The pieces were washed twice with EBSS (Earle's Balanced Salt Solution) containing 1 mM of EDTA and then shaken in MEM (Minimum Essential Medium) containing 1 mM of EDTA at 37° C. for 5 minutes. Subsequently, they were shaken in the dispase and collagenase having the same concentrations as those mentioned above for 15 minutes so as to remove the supernatant and then further shaken at 37° C. for 50 to 60 minutes at 120 to 130 cycles/minute. Then, after being washed twice with HBSS, Ham F12 containing 2% of Ultrocer G™ was used to attain the concentration of 1×10^6 cells/ml. Thus formed suspension was dispensed in each well of a 96-well plate by 200 μl. The plate was incubated in the atmosphere composed of 5% CO2 and 95% air at 37° C. for three days so as to attain a confluent state and then subjected to MTT assay.
The sample compound was dissolved in DMSO so as to attain a concentration of 10^-2 M and then diluted with HBSS containing 2% of Ultrocer G™ so as to attain a final concentration of 10^-4 M. To each group, which 8 wells were used for, 10 μl of MTT reagent was added immediately after 100 μl of the medium in each well was exchanged for same volume of the resulting solution of the sample compound. After being incubated in an atmosphere composed of 5% CO2 and 95% air at 37° C. for 4 hours, thus formed solution was centrifuged and then its supernatant was discarded. Subsequently, 100 μl of 100% ethanol was added to the residue so as to dissolve MTT formazan. Then, the absorbance (OD: 570 to 630) was measured by a microplate reader. This method utilizes a phenomenon in which MTT is changed to MTT formazan only by mitochondria of living cells so as to change color.
The cell damaging or cell protecting effect of the sample compound at the final concentration of 10^-4 M was expressed as cell damaging rate (%) as follows:
cell damaging rate (%)=(1-(absorbance in sample group/absorbance in control group))×100
Accordingly, the smaller value is better in the cell damaging rate.

Point of comparison: `CCN1CCCC1CNC(=O)c1ccc(OCC=C(C)C)cc1` (stereo not drawn) [Example 3, 1-ethyl-2-(4-prenyloxybenzoylaminomethyl)pyrrolidine], cytotoxicity at 4 h, 100 µM -14%. Against it:
- CCN1CCCC1CNC(=O)c1ccccc1OC/C=C(\C)CCC=C(C)C (stereo not drawn) [Example 2, 1-ethyl-2-(2-geranyloxybenzoylaminomethyl)pyrrolidine] — higher, 19%
- CCN1CCCC1CNC(=O)c1ccc(OCC=C(C)C)cc1OCC=C(C)C (stereo not drawn) [Example 5, 1-ethyl-2-(2,4-diprenyloxybenzoylaminomethyl)pyrrolidine] — higher, 9%

test system: Slc:ICR mice; assay: not given; parameters: species or system male Slc:ICR mice; settings: mouse, in vivo
Experimental: AT: Single Dose Toxicity Pretest
Male Slc:ICR mice (5-week-old) were used. Each group has 3 to 5 mice and each mouse was fasted, but allowed free access to water, for 4 to 5 hours from 9 a.m. in the test day. Then, 2,000 mg/10 ml/kg of the sample compound dissolved or suspended in an aqueous solution of 0.5% sodium carboxymethyl cellulose was orally administered thereto. To a control, only the vehicle was administered. […] The body weight was measured before and after the fasting as well as at the same time everyday. The dead animals were immediately subjected to autopsy and their organs were observed by naked eyes. Also, the living animals were sacrificed with ether or carbon dioxide one week after the administration and then their organs were observed by naked eyes.
The toxicity at the single dose of 2,000 mg/kg of the sample compound was expressed as being classified into 5 levels.
5: Mortality rate is 0%; no toxicity is found at all both in behavior and organs.
4: Mortality rate is 0%; while no toxicity is found in organs, slight toxicity is observed in behavior or body weight increase.
3: While there is a dead animal (though not all the animals are dead), no toxicity is found in organs.
2: Regardless of whether there is a dead animal or not, toxicity is found in organs.
1: All the animals are dead.

Point of comparison: `CCN1CCCC1CNC(=O)c1ccc(OC/C=C(/C)CCC=C(C)C)cc1` (stereo not drawn) [Example 4, 1-ethyl-2-(4-neryloxybenzoylaminomethyl)pyrrolidine], “toxicity at single dose (AT), 5 levels” value 5. Against it:
- CCN1CCCC1CNC(=O)c1cc(OCC=C(C)C)cc(OCC=C(C)C)c1 (stereo not drawn) [Example 8, 1-ethyl-2-(3,5-diprenyloxybenzoylaminomethyl)pyrrolidine] — the same, 5
